{"source": "patent US11198680B2", "about": "(BioAxone BioSciences, Inc., priority 2016, dated 2021)", "key": {"GCN": {"tested_on": "GCN", "experiment": "KINOMEscan kinome screen", "parameters": "species or system human", "conditions": "percent of negative control binding", "from_the_text": "(§1) The KINOMEscan™ screening platform (DiscoverX, Fremont, Calif.) employs a novel active site-directed competition binding assay to quantitatively measure interactions between test compounds and more than 450 human kinases and disease relevant mutant variants. […] Compounds that bind the kinase active site and directly (sterically) or indirectly (allosterically) prevent kinase binding to the immobilized ligand, will reduce the amount of kinase captured on the solid support. […] Screening “hits” are identified by measuring the amount of kinase captured in test versus control samples by using a quantitative, precise and ultra-sensitive qPCR method that detects the associated DNA label.\n(§2) Kinase-tagged T7 phage strains were grown in parallel in 24-well blocks in an E. coli host derived from the BL21 strain. E. coli were grown to log-phase and infected with T7 phage from a frozen stock (multiplicity of infection=0.4) and incubated with shaking at 32° C. until lysis (90-150 minutes). The lysates were centrifuged (6,000×g) and filtered (0.2 μm) to remove cell debris. The remaining kinases were produced in HEK-293 cells and subsequently tagged with DNA for qPCR detection (Wein, et al. (2016) Nat. Comm. 7). […] Test compounds were prepared as 40× stocks in 100% DMSO and directly diluted into the assay. All reactions were performed in polypropylene 384-well plates in a final volume of 0.02 ml."}, "AMPK (1 and 2)": {"tested_on": "AMPK (1 and 2)", "experiment": "KINOMEscan kinome screen", "parameters": "species or system human", "conditions": "percent of negative control binding; 100% equals no interference", "from_the_text": "as §1, §2"}, "ROCK1": {"tested_on": "ROCK1", "experiment": "KINOMEscan kinome screen", "conditions": "percent of negative control binding; first ROCK1 row", "from_the_text": "as §1, §2"}, "[1]": {"tested_on": "Rho/ROCK activity (MLC2 diphosphorylation) in human brain microvascular endothelial cells", "experiment": "LPA-treated hBMVECs, pMLC2 T18/S19 immunoblot", "format": "cell-based", "conditions": "20 μM LPA, Example 16, present tense", "experimental": "Cells are exposed to each dose for 1 hr, and are then stimulated with 20 μM LPA for either 5 min or 1 hr as described below. All experiments are conducted in triplicate and analyzed by 2 independent assessors blinded to both cell line and treatment.\nCells are subjected to biochemical analysis of diphosphorylated MLC2 (Threonine 18/Serine 19 phosphorylation sites) and phosphorylated cofilin (Serine 9 phosphorylation site) using SDS-PAGE and immunoblotting. Cells are plated in 24-well tissue culture plates coated with 70 μg/ml rat collagen-1 (Corning) and grown in ENDO-growth media (Neuromics) for 3 days at 37° C./5% CO2 until confluency. […] The medium is exchanged for ENDO basal media supplemented with 1% HSA, 20 μM of LPA (Santa Cruz Biotech; Santa Cruz, Calif.) and the appropriate amount of compound being tested. After 5 min, the medium is aspirated and the cells are briefly washed with 1×PBS. Proteins are extracted from cells by lysis with RIPA buffer supplemented with complete protease/phosphatase inhibitor (HALT, Thermo Fisher Scientific), reduced and denatured using Laemmli sample buffer (BioRad; Hercules, Calif., beta-mercaptoethanol and subjected to SDS-PAGE.\nDenatured samples are electrophoresed in reducing 10% Bis-Tris-PA gels (Novex; Thermo-Fisher), and are transferred onto 0.25 μm PVDF membranes (EMD Millipore). Membranes are probed using amti-pMLC2 T18/S19 (1:500; Cell Signaling) or anti-pCofilin (1:500, Cell Signaling S9) and anti-glyceraldehyde 3-phosphate dehydrogenase loading control (GAPDH, 1:10000; Abcam, Cambridge, Mass.). Protein levels are detected using a chemiluminescence substrate (Super Signal West, ThermoFisher) and images are captured using a FluoroChem SP Imaging System."}, "[2]": {"tested_on": "Rho/ROCK activity (MLC2 diphosphorylation) in HUVECs", "experiment": "LPA-treated HUVECs, pMLC2 T18/S19 immunoblot", "format": "cell-based, human", "experimental": "Cell lines were exposed to each dose for 1 hr, and then are stimulated with 20 μM LPA for either 5 min or 1 hr as described below. All experiments were conducted in triplicate and analyzed by two independent assessors blinded to both cell line and treatment.\nCells were subjected to biochemical analysis of diphosphorylated MLC2 (Threonine 18/Serine 19 phosphorylation sites) and cofilin (Serine 9 phosphorylation site) using SDS-PAGE and immunoblotting. Cells were plated in 24-well tissue culture plates coated with 70 μg/ml rat collagen-1 (Corning; Corning, N.Y.), and grown for 2 d to 3 d at 37° C./5% CO2 until confluency. […] Then medium was exchanged for Medium 200 supplemented with 0.1% HSA (Sigma-Aldrich) and 20 μM of LPA (Santa Cruz Biotech; Santa Cruz, Calif.) and incubated for 5 min. After LPA stimulation, proteins were extracted from cells by lysis with RIPA buffer supplemented with HALT complete protease/phosphatase inhibitor (ThermoFisher, Waltham, Mass.), reduced and denatured using Laemmli sample buffer (BioRad, Hercules, Calif.)/beta-mercaptoethanol and subjected to SDS-PAGE.\nDenatured samples were electrophoresed in reducing 10% Bis-Tris-gels polyacrylamide gels (Novex; Thermo-Fisher, Waltham, Mass.) and were transferred onto 0.25 μm PVDF membranes (EMD Millipore, Billerica, Mass.). Membranes are probed using amti-pMLC2 T18/S19 (1:500; Cell Signaling, Danvers, Mass.) or anti-pCofilin S9 (1:500, Cell Signaling, Danvers, Mass.) and anti-glyceraldehyde 3-phosphate dehydrogenase loading control (GAPDH, 1:10000; Abcam). Protein levels were detected using chemiluminescence substrate (Super Signal West, ThermoFisher, Waltham, Mass.) and images captured using a FluoroChem SP Imaging System."}, "5-HT2b-receptor": {"molecular_target": "5-HT2b-receptor (Homo sapiens (Human), UniProt P41595)", "sequence (P41595 whole entry)": "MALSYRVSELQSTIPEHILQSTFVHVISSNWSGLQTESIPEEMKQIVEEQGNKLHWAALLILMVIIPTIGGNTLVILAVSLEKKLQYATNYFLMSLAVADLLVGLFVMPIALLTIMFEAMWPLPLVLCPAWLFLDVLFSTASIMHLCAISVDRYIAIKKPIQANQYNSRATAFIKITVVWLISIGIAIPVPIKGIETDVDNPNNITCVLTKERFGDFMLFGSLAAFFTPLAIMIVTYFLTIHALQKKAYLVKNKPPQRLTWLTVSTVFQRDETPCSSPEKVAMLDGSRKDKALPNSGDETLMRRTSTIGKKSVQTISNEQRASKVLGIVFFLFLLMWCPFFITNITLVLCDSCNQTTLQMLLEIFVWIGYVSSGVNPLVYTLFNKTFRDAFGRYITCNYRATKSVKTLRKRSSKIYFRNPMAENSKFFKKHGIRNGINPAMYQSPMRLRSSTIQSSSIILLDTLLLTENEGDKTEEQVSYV", "experiment": "SAFETYscan off-target panel", "format": "cell-based", "conditions": "10 μM", "protocol": "(§3) The SAFETYscan™ (DiscoverX) is used for rapid testing of any compound against a panel that includes well-known membrane proteins of importance for drug development such as selected voltage-gated ion channels, G-protein coupled receptors, neurotransmitter transporters and also a selected group of purified cellular enzymes.\n(§4) Cell lines engineered to express individual transmembrane receptor proteins such as the muscarinic acetylcholine receptor or the dopamine D1 receptor were grown in culture in their standard growth medium until reaching confluence. […] The experiment also contains controls for comparison including known agonists and antagonists of the targeted membrane proteins.\n(§5) For assays using purified enzymes, an enzyme assay is set up in standard reaction buffer and necessary indicators for activity such as co-factors, buffers and synthetic substrates. […] As positive controls, a binding assay using Rho kinase (ROCK) was included in the panel. Other targets in the panel included G-protein coupled receptors, nuclear hormone receptors, intracellular non-kinase enzymes, ion channels, and neurotransmitter transporters. The specific targets were chosen because of their previous known associations with being the source of problematic off-target effects in cellular or whole animal studies."}, "human hepatocytes": {"tested_on": "human hepatocytes", "experiment": "Metabolism in cultured hepatocytes", "format": "in vitro ADME"}, "[3]": {"experiment": "Systolic blood pressure in mice, tail cuff plethysmography", "conditions": "0.5, 1, 3 mg/kg in drinking water; Example 18, present tense", "experimental": "Three test cohorts of mice are housed with unlimited access to normal chow and drinking water. For the first 5 days, the mice are handled daily to habituate them to contact and their blood pressures measured using a multi-animal tail cuff plethysmography apparatus (MRBP Tail Cuff Blood Pressure System; IITC Life Science; Woodland Hills, Calif.). […] These values serve as the baseline.\nThe third cohort receives normal, unadulterated drinking water. On day 8, blood pressure is measured for all mice.\nAfter the day 8 blood pressure measurement, drug dosage in the 2 test cohorts is increased to 1 mg/kg-body weight and the cohort continues for 3 days at the new dose. On day 11, blood pressure is again recorded by tail cuff plethysmography for all mice during a 5 min. recording session.\nFollowing the blood pressure recording, ON DAY 11, drug dosages in drinking water of test groups are increased up to 3 mg/kg-body weight and the cohorts continue for 3 days at the new dose. On day 14, blood pressure is recorded by tail cuff plethysmography for all mice during a 5 min. recording session."}, "canine hepatocytes": {"tested_on": "canine hepatocytes", "experiment": "Metabolism in cultured hepatocytes", "format": "in vitro ADME", "conditions": "Dog hepatocytes"}, "ROCK2 [4]": {"molecular_target": "T1, ROCK2 (Homo sapiens (Human), UniProt O75116)", "conditions": "ratio of dissociation constants ROCK1/ROCK2", "experimental": "(§6) The assay is performed by combining the DNA-tagged kinase, immobilized ligand, and a test compound. The ability of the test compound to compete with the immobilized ligand is measured via quantitative PCR of the DNA tag.\n(§7) The highest concentration tested was 30 μM."}, "[5]": {"tested_on": "ROCK2 activation (phospho-cofilin)", "experiment": "Transient MCAO stroke model, phospho-cofilin Western blot left versus right brain", "format": "in vivo, mouse", "experimental": "The murine intraluminal monofilament model of middle cerebral artery occlusion (MCAO) is used on mice in this study. MCAO involves the insertion of a surgical filament into the external carotid artery and threading it forward into the internal carotid artery until the tip occludes the origin of the MCA, resulting in a cessation of blood flow and subsequent brain infarction in the MCA territory. The technique is used herein to model transient occlusion. If the filament is removed after 1 h, reperfusion is achieved (transient MCAO). This study determines the most efficacious dose and route of administration that reduce Rho-kinase 2 (ROCK2) activation following transient MCAO-induced stroke in mice. The pharmacodynamic response is also determined in this study.\nTwenty-eight 9-wk old C57BL/6 (Charles River Laboratories) were used in this study. For surgery, the mouse was placed in a supine position on an infrared heating pad. The fur over the ventral neck was shaved and the skin was disinfected with 70% ethanol and povidone iodine. Under a stereo dissecting microscope, a 1 cm midline incision was made on the neck and retractors were used to expose the left common carotid artery (CCA), the external carotid artery (ECA) and the internal carotid artery (ICA). The arteries were carefully dissected to free them from surrounding nerves and fascia. The ECA was dissected further distally and two 8-0 silk sutures are tied around the ECA stump and a vascular clamp was applied at the bifurcation of the CCA into the ECA and ICA. A small incision was made at the end of ECA stump with Vannas-style spring scissors. A blunt 5-0 monofilament suture (Doccol) was inserted into the incision and advanced from the lumen of the ECA into the ICA for a distance of 9-10 mm beyond the bifurcation of CCA to occlude the origin of MCA. For the mouse model, a distance of 9 mm-11 mm rostral to the CCA bifurcation is inserted. After 60 min., the monofilament was removed. The incision was sutured with 4.0 prolene sutures. […] The mouse is allowed to recover on a heating pad until thermoregulation is re-established.\nFor Western blot analysis, mice were anesthetized using isoflurane and decapitated. […]\n20 μL protease inhibitor (Halt, Protease, Fisher Scientific, Pittsburgh, Pa.) and 10 μL phosphatase inhibitor (Fisher Scientific) were added to 1 mL RIPA buffer (Santa Cruz Biotechnology, Dallas, Tex.). […] The protein concentration of each sample was determined using the DC Protein Assay Kit and following the manufacturer's instructions.\nThe left and right hemispheres of each brain were homogenized and prepared for Western blotting, and the signal of phospho-cofilin was measured quantitatively by densitometry compared to an internal standard, cyclophilin. […]"}, "ROCK2 [6]": {"molecular_target": "T1, ROCK2", "experiment": "biochemical", "experimental": "as §6, §7"}, "[7]": {"experiment": "SAFETYscan off-target panel, all targets", "conditions": "10 μM; except 5-HT2b-receptor", "protocol": "as §3, §4, §5"}, "rat hepatocytes": {"tested_on": "rat hepatocytes", "experiment": "Metabolism in cultured hepatocytes", "format": "in vitro ADME", "protocol": "Test articles were incubated in duplicate rat hepatocytes at 37° C. The reaction contained […] KHB buffer, a pH 7.4. At indicated times (0 min, 15 min, 30 min, 60 min, 120 min), an aliquot was removed from each experimental and control reaction and mixed with an equal volume of ice-cold methanol. Stopped reactions were incubated at least ten minutes at −20° C. The samples were centrifuged to remove precipitated protein, and the supernatants were analyzed by LC-MS/MS."}, "ROCK2 [8]": {"molecular_target": "T1, ROCK2", "experiment": "Direct filter-binding radiometric kinase assay, IC50 determination", "format": "biochemical"}, "mouse hepatocytes": {"tested_on": "mouse hepatocytes", "experiment": "Metabolism in cultured hepatocytes", "format": "in vitro ADME"}}, "note": "pIC50, pKd: −log10 of the molar value. Read-outs that look alike come from different tables or passages of the source."}
{"smiles": "C[C@@H](N)C1CCN(S(=O)(=O)c2cccc3c(=O)[nH]ccc23)CC1", "note": "[1-hydroxy-BA-1049 (R)]", "values": [{"measurement": "% Negative Binding, GCN", "setting": "GCN", "result": 96, "unit": "%"}, {"measurement": "% Negative Binding, AMPK (1 and 2)", "setting": "AMPK (1 and 2)", "result": 100, "unit": "%"}, {"measurement": "% Negative Binding, ROCK1", "setting": "ROCK1", "result": 0.15, "unit": "%"}, {"measurement": "concentration fully abolishing MLC2 diphosphorylation", "setting": "[1]", "result": "≥ 10", "unit": "µM"}, {"measurement": "effect on MLC2 diphosphorylation (pMLC2 T18/S19)", "setting": "[1]; no data shown", "result": "reduce MLC2 diphosphorylation"}, {"measurement": "concentration fully abolishing MLC2 diphosphorylation", "setting": "[2]; 20 μM LPA", "result": "≥ 10", "unit": "µM"}, {"measurement": "effect on MLC2 diphosphorylation (pMLC2 T18/S19)", "setting": "[2]; 1-100 μM 1 hr, 20 μM LPA 5 min", "result": "reduce MLC2 diphosphorylation"}]}
{"smiles": "C[C@@H](N)C1CCN(S(=O)(=O)c2cccc3cnccc23)CC1", "note": "[BA-1049 (R)]", "values": [{"measurement": "interaction with the 5-HT2b-receptor", "setting": "5-HT2b-receptor", "result": "potential antagonistic interaction"}, {"measurement": "½ Life", "setting": "human hepatocytes", "result": 41.7, "unit": "min"}, {"measurement": "effect on average systolic blood pressure", "setting": "[3]", "result": "little or no effect on average systolic blood pressure"}, {"measurement": "metabolism by hepatocytes", "setting": "canine hepatocytes", "result": "do not show any detectable metabolism"}, {"measurement": "½ Life", "setting": "canine hepatocytes", "result": ">480", "unit": "min"}, {"measurement": "Fractional Selectivity for ROCK2", "setting": "ROCK2 [4]", "result": 1.86}, {"measurement": "duration of efficacy on phospho-cofilin", "setting": "[5]; 10 mg/kg after reperfusion, examined 4 hr or 24 hr", "result": "at least 24 hr"}, {"measurement": "minimal effective levels", "setting": "[5]; daily repeat dosing", "result": "less than 1 mg/kg"}, {"measurement": "minimal effective dose to reverse ROCK activation", "setting": "[5]; single intraperitoneal application, phospho-cofilin left versus right brain", "result": 1, "unit": "mg/kg"}, {"measurement": "pKd", "setting": "ROCK2 [6]; ROCK2 KD, average of duplicate determinations, Table 5", "result": 7.20}, {"measurement": "pKd", "setting": "ROCK2 [6]; ROCK2 Kd, Table 1", "result": 7.23}, {"measurement": "activity against targets in the total SAFETYscan", "setting": "[7]", "result": "no activity against any of the targets in the total SAFETYscan™"}, {"measurement": "½ Life", "setting": "rat hepatocytes", "result": 60, "unit": "min"}, {"measurement": "pIC50", "setting": "ROCK2 [8]; 10 μM ATP, Table 2, read-out: Compound IC50 ROCK2", "result": 6.62}, {"measurement": "pIC50", "setting": "ROCK2 [8]; Compound IC50 ROCK2 10 μM ATP, CRO Eurofins, 10 μM ATP", "result": 6.62}, {"measurement": "pIC50", "setting": "ROCK2 [8]; Compound IC50 ROCK2 10 μM ATP, CRO Reaction Biology, 10 μM ATP", "result": 6.47}, {"measurement": "pIC50", "setting": "ROCK2 [8]; Compound IC50 ROCK2 15 μM ATP, Km ATP 15 μM, Table 3", "result": 6.47}, {"measurement": "pIC50", "setting": "ROCK2 [8]; Compound IC50 ROCK2 15 μM ATP, Km ATP 15 μM, Table 7", "result": 6.47}, {"measurement": "pIC50", "setting": "ROCK2 [8]; read-out: Compound IC50 ROCK2 10 μM ATP, CRO Eurofins, 10 μM ATP", "result": 6.62}, {"measurement": "½ Life", "setting": "mouse hepatocytes", "result": 2.2, "unit": "min"}]}
